Measured values from PubChem BioAssay (NCI).
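96-well plates; 48 h exposure; 5 concentrations. Endpoints by linear interpolation between flanking doses. Not reached: highest tested concentration assigned. GI50 is the concentration that inhibits growth by half. Definition used: TGI = concentration required for complete inhibition of growth.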

What was measured:
Test in all cases: NCI-60 cell line screen, 48 h
COLO 205 colon = tested on: COLO 205 colon
OVCAR-3 ovarian = tested on: OVCAR-3 ovarian
SK-MEL-5 melanoma = tested on: SK-MEL-5 melanoma
TK-10 renal = tested on: TK-10 renal
SK-MEL-28 melanoma = tested on: SK-MEL-28 melanoma
CAKI-1 renal = tested on: CAKI-1 renal
A549 NSCLC = tested on: A549 NSCLC
IGROV1 ovarian = tested on: IGROV1 ovarian
MOLT-4 leukemia = tested on: MOLT-4 leukemia
HS 578T breast = tested on: HS 578T breast

SMILES	TGI (COLO 205 colon)	TGI (OVCAR-3 ovarian)	TGI (SK-MEL-5 melanoma)	TGI (TK-10 renal)	TGI (SK-MEL-28 melanoma)	TGI (CAKI-1 renal)	TGI (A549 NSCLC)	TGI (IGROV1 ovarian)	TGI (MOLT-4 leukemia)	TGI (HS 578T breast)	GI50 (COLO 205 colon)	GI50 (SK-MEL-5 melanoma)	GI50 (TK-10 renal)	GI50 (SK-MEL-28 melanoma)	GI50 (CAKI-1 renal)	GI50 (A549 NSCLC)	GI50 (HS 578T breast)	GI50 (MOLT-4 leukemia)
COc1cc2c3cc1Oc1c(O)c(OC)cc4c1C(Cc1ccc(O)c(c1)Oc1ccc(cc1)CC3N(C)CC2)N(C)CC4 (stereo not given)	43.4 µM	30.5 µM	32.9 µM	18.2 µM	32.8 µM	32.4 µM	31.4 µM	56.1 µM	30.8 µM									
COc1cc(C2C3=C(COC3=O)Oc3cc4c(cc32)OCO4)ccc1O (stereo not given)	0.576 µM	0.471 µM	0.736 µM	> 100 µM	> 100 µM	0.438 µM	> 100 µM	> 100 µM	> 100 µM									
NS(=O)(=O)c1nnc(NC(=O)C23CC4CC(CC(C4)C2)C3)s1	> 100 µM	> 100 µM	> 100 µM	> 100 µM	> 100 µM	> 100 µM	> 100 µM		> 100 µM	> 100 µM								
CCOC(=O)C(=O)C=P(c1ccccc1)(c1ccccc1)c1ccccc1	> 100 µM	> 100 µM	> 100 µM	> 100 µM	> 100 µM	> 100 µM	> 100 µM	> 100 µM	> 100 µM									
N#CC(N=Nc1ccccc1C(=O)O)C(N)=O (stereo not given)		> 100 µM	> 100 µM	> 100 µM	> 100 µM	> 100 µM	> 100 µM		> 100 µM									
C1CSCCSCCCSC2CCCCC2SC1 (stereo not given)	> 100 µM	> 100 µM	> 100 µM	> 100 µM	> 100 µM		> 100 µM	> 100 µM	> 100 µM									
Cc1c[n+]2c3ccccc3c3ccccc3c2s1	26.1 µM	12.9 µM	17.9 µM	> 70.9 µM	18 µM	31.5 µM	> 100 µM	> 100 µM	13.4 µM									
Nc1ccc2[nH]c(-c3cccc(C(F)(F)F)c3)cc(=O)c2c1	> 100 µM		> 100 µM	> 100 µM	> 100 µM	> 100 µM	> 100 µM	> 100 µM	> 100 µM	65.6 µM								
COc1cc2c(c(OC)c1OC)-c1ccc(SC)c(=O)cc1C(CC(=O)Oc1cccc([N+](=O)[O-])c1)C2 (stereo not given)	2.24 µM	0.94 µM	> 100 µM	> 100 µM	> 100 µM	> 100 µM	> 100 µM	> 100 µM	> 100 µM									
CC1(C)[C@@H]2C[C@H]1[C@@H](Cc1cccc(C[C@H]3c4cc(-c5ccccn5)ncc4[C@H]4C[C@@H]3C4(C)C)c1)c1cc(-c3ccccn3)ncc12	> 65.5 µM	> 100 µM	> 38 µM	> 100 µM	> 100 µM	17 µM	> 100 µM	> 53.3 µM	> 100 µM									
COc1ccc(OC)c(NCC(=O)Nn2cnc3ccc(S(=O)(=O)Nc4cc(OC)ccc4OC)cc3c2=O)c1	> 100 µM	> 100 µM		> 100 µM	> 100 µM	> 100 µM	> 100 µM	> 100 µM	> 100 µM	> 100 µM								
CNC(=O)NCNC(=O)NC	> 100 µM	> 100 µM	> 100 µM	> 100 µM	> 100 µM	> 100 µM	> 100 µM	> 100 µM	> 100 µM									
CC1CN=C(NS(=O)(=O)c2cc(C(=O)Nc3ccc(Cl)cc3)c(Cl)cc2S)NN1 (stereo not given)	> 100 µM	> 100 µM	28.8 µM	> 100 µM	83.9 µM	> 100 µM	> 100 µM	> 100 µM	> 100 µM									
CCOP(=O)(OCC)/C(C#N)=C/c1cccn1C(C)C	> 100 µM	> 100 µM	> 100 µM	> 100 µM	> 100 µM	> 100 µM	> 100 µM	> 100 µM	> 100 µM									
Cc1c(C)c(C)c(Cn2[nH]c(=O)n(C)c2=O)c(C)c1C	> 100 µM		> 100 µM	> 100 µM	> 100 µM	> 100 µM	> 100 µM	> 100 µM	> 100 µM	> 100 µM								
CCC(C)C(N)C(=O)NC(CC(N)=O)C(=O)NC(CC(C)C)C(=O)NC(CCCCN)C(=O)NC(C)C(=O)NC(CC(C)C)C(=O)NC(C)C(=O)NC(C)C(=O)NC(CC(C)C)C(=O)NC(C)C(=O)NC(CCCCN)C(=O)NC(CCCCN)C(=O)NC(C(=O)NC(CC(C)C)C(N)=O)C(C)CC (stereo not given)	32.1 µM	22.6 µM	14.3 µM	27.6 µM	22 µM	22.5 µM	24.9 µM	34.4 µM	38.5 µM									
CCOC(=O)c1nc2ccc(C(F)(F)F)cc2nc1Nc1cc(OC)c(OC)c(OC)c1	> 100 µM	> 100 µM	> 100 µM	> 100 µM	> 100 µM		> 100 µM	> 100 µM	> 100 µM	> 100 µM								
COc1cc(C(=O)O[C@H](C(=O)NCCCNC(=O)[C@@H](OC(=O)c2cc(OC)cc3c(C)cccc23)[C@]2(C)CO2)[C@]2(C)CO2)c2cccc(C)c2c1	0.511 µM		0.178 µM	0.28 µM	0.142 µM	0.205 µM	0.718 µM		< 0.01 µM		0.0593 µM	< 0.0154 µM	0.0275 µM	< 0.0375 µM	0.033 µM	0.128 µM	0.206 µM	< 0.01 µM
N#CCc1c(-c2ccccc2)n(S(=O)(=O)c2ccccc2)c2ccccc12	> 100 µM	> 100 µM	> 100 µM	> 100 µM	> 100 µM	> 100 µM	> 100 µM	> 100 µM	> 100 µM									
Clc1cccc(-c2sc(-c3ccsc3)cc2Cc2ccsc2)c1	> 10 µM		> 10 µM	> 10 µM	> 10 µM	> 10 µM	> 10 µM	> 10 µM	> 10 µM									
COC(=O)c1c(C(=O)OC)c2ccccn2c1-c1cc(OC)c(Br)c(=O)o1	> 100 µM	> 100 µM	> 100 µM	> 100 µM	> 100 µM		> 100 µM	> 100 µM	> 100 µM	> 100 µM								
CCOC(=O)CC(c1ccccc1)C(C)(C(=O)OCC)C(=O)OCC (stereo not given)	> 100 µM		> 100 µM	> 100 µM	> 100 µM	> 100 µM	> 100 µM	> 100 µM	> 100 µM	> 100 µM								
